23 molecules from US9403830B2, “Inhibitors of leukotriene production” (Boehringer Ingelheim International GmbH, priority 2012, dated 2016) can be followed below.

One experiment addresses T1, human LTA4 hydrolase (Homo sapiens, UniProt P09960).
T1 sequence (P09960 1-611): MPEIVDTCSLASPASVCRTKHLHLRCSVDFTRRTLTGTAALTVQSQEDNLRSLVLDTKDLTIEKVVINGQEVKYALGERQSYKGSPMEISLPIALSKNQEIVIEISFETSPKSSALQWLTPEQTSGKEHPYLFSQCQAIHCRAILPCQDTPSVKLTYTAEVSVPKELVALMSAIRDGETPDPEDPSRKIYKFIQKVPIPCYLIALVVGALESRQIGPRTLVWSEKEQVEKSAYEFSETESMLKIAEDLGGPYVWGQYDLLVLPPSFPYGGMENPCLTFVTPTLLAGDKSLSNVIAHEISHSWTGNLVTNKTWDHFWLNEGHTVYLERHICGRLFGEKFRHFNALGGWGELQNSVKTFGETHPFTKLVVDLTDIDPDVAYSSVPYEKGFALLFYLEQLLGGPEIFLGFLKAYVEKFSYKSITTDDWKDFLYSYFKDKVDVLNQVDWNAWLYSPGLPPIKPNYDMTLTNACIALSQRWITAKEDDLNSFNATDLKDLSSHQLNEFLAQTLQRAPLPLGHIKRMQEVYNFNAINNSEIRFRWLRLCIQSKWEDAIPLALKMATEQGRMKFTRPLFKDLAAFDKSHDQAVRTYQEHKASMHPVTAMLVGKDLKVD
Kind of experiment: LTA4H Enzyme assay (peptidase, Arg-AMC cleavage). As to conditions: LTA4H enzyme 1 nM, Arg-AMC substrate 50 μM, room temperature 1 h, fluorescence 380/460 nm. It counts as biochemical. A digest of the protocol:
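Human LTA4H (1 nM final) incubated with compound and Arg-AMC (50 μM final) in 50 mM Tris-HCl pH 7.5, 100 mM KCl, 0.5% BSA, 1 h at room temperature. Product read as AMC fluorescence (ex 380/em 460 nm); IC50 reported.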

The test system of experiment [1] is LTB4 synthesis in human whole blood. Kind of experiment: human whole blood (HWB) assay, inhibition of LTB4 production. Format: cell-based. As to conditions: heparinized human whole blood, calcimycin 20 μM stimulation, plasma LTB4. A digest of the protocol: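 Heparinized human whole blood preincubated with compound 15 min at 37 °C, then stimulated with 20 μM (final) calcimycin for 30 min at 37 °C. Plasma LTB4 measured by antibody-based HTRF; IC50 reported.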

In general, IC50 refers to the point on the concentration scale where inhibition reaches its midpoint.

As for `COCC1CCCN(Cc2nc3cc(Oc4ccc(-c5ccn[nH]5)cc4)ccc3[nH]2)C1` (stereo not shown) [Example 156, 2-(3-Methoxymethyl-piperidin-1-ylmethyl)-5-[4-(2H-pyrazol-3-yl)-phenoxy]-1H-benzoimidazole], the IC50 against human LTA4 hydrolase came to 0.22 nM; in experiment [1], 95 nM.

Take `CC(=O)NC1CCN(CCc2coc3cc(Oc4ccc(-c5ccn[nH]5)cn4)ccc23)CC1` [Example 133, N-[1-(2-{6-[5-(2H-Pyrazol-3-yl)-pyridin-2-yloxy]-benzofuran-3-yl}-ethyl)-piperidin-4-yl]-acetamide]: the IC50 against human LTA4 hydrolase worked out at 0.35 nM; in experiment [1], 150 nM.

Take `CN(C)C(=O)CC1CCN(CC2Cc3ccc(Oc4ccc(-c5ccn[nH]5)cc4)cc3O2)CC1` (stereo not shown) [Example 169, N,N-Dimethyl-2-(1-{6-[4-(2H-pyrazol-3-yl)-phenoxy]-2,3-dihydro-benzofuran-2-ylmethyl}-piperidin-4-yl)-acetamide]: the values for the IC50 (at human LTA4 hydrolase; in experiment [1]) were 0.25 nM and 120 nM, respectively.

For `CC(=O)N[C@@H]1C[C@H]2CC[C@@H](C1)N2Cc1ccc2cc(Oc3ccc(-c4ccn[nH]4)cc3)ccc2n1` [Example 248, N-((exo)-8-{6-[4-(2H-Pyrazol-3-yl)-phenoxy]-quinolin-2-ylmethyl}-8-aza-bicyclo[3.2.1]oct-3-yl)-acetamide], the IC50 at human LTA4 hydrolase was determined as 0.083 nM; in experiment [1], 200 nM.

In the case of `c1cc(-c2ccc(Oc3ccc4c(CN5CCOCC5)n[nH]c4c3)nc2)[nH]n1` [Example 113, 3-Morpholin-4-ylmethyl-6-[5-(2H-pyrazol-3-yl)-pyridin-2-yloxy]-1H-indazole], the concentration for half-maximal inhibition (IC50) against human LTA4 hydrolase is 2.6 nM; in experiment [1], 470 nM.

Regarding `CN(Cc1nc2cc(Oc3ccc(-c4ccn[nH]4)cc3)ccc2[nH]1)C[C@@H]1CCCO1` [Example 76, Methyl-{5-[4-(2H-pyrazol-3-yl)-phenoxy]-1H-benzoimidazol-2-ylmethyl}-[(S)-1-(tetrahydro-furan-2-yl)methyl]-amine], the figures for the IC50 (against human LTA4 hydrolase; in experiment [1]) were 0.2 nM and 87 nM, respectively.

With `c1cc(-c2ccc(Oc3ccc4c(cnn4CCN4CCOCC4)c3)cc2)[nH]n1` [Example 102, 1-(2-Morpholin-4-yl-ethyl)-5-[4-(2H-pyrazol-3-yl)-phenoxy]-1H-indazole], the figures for the IC50 (on human LTA4 hydrolase; in experiment [1]) were 0.91 nM and 190 nM, respectively.

Consider `CCN(C)CCn1cc2cc(Oc3ccc(-c4ccn[nH]4)cc3)ccc2n1` [Example 154, Ethyl-methyl-(2-{5-[4-(2H-pyrazol-3-yl)-phenoxy]-indazol-2-yl}-ethyl)-amine], for which the results for the IC50 (at human LTA4 hydrolase; in experiment [1]) were 0.19 nM and 95 nM, respectively.

For `CN(Cc1nc2cc(Oc3ccc(-c4ccn[nH]4)cc3)ccc2[nH]1)[C@@H]1CCOC1` [Example 78, Methyl-{5-[4-(2H-pyrazol-3-yl)-phenoxy]-1H-benzoimidazol-2-ylmethyl}-(R)-tetrahydro-furan-3-yl-amine], the concentration for half-maximal inhibition (IC50) against human LTA4 hydrolase stood at 0.089 nM; in experiment [1], 95 nM.

Consider `CC(=O)N1CCN(Cc2coc3cc(Oc4ccc(-c5ccn[nH]5)cn4)ccc23)CC1` [Example 149, 1-(4-{6-[5-(2H-Pyrazol-3-yl)-pyridin-2-yloxy]-benzofuran-3-ylmethyl}-piperazin-1-yl)-ethanone], for which the values for the half-maximal inhibitory concentration (IC50) (against human LTA4 hydrolase; in experiment [1]) were 1.2 nM and 250 nM, respectively.

`C[C@H]1CN(Cc2nc3ccc(Cc4ccc(-c5ccn[nH]5)cc4)cc3[nH]2)C[C@H](C)O1` [Example 56, 2-((2S,6S)-2,6-Dimethyl-morpholin-4-ylmethyl)-6-[4-(2H-pyrazol-3-yl)-benzyl]-1H-benzoimidazole]: the IC50 at human LTA4 hydrolase stood at 0.18 nM; in experiment [1], 110 nM.

As for `O=C(CNCc1ccc2cc(Oc3ccc(-c4ccn[nH]4)cn3)ccc2n1)N1CCCC1` [Example 45, 2-({6-[5-(2H-Pyrazol-3-yl)-pyridin-2-yloxy]-quinolin-2-ylmethyl}-amino)-1-pyrrolidin-1-yl-ethanone], the values for the IC50 (against human LTA4 hydrolase; in experiment [1]) were 2.8 nM and 420 nM, respectively.

`O=C(c1cn2ccc(Oc3ccc(-c4ccn[nH]4)cc3)cc2n1)N1CCOCC1` [Example 258, Morpholin-4-yl-{7-[4-(2H-pyrazol-3-yl)-phenoxy]-imidazo[1,2-a]pyridin-2-yl}-methanone]: the concentration for half-maximal inhibition (IC50) against human LTA4 hydrolase was found to be 10 nM; in experiment [1], 2000 nM.

Turning to `CC(=O)N1CCN(Cc2cc3cc(Oc4ccc(-c5ccn[nH]5)cn4)ccc3cn2)CC1` [Example 223, 1-(4-{6-[5-(2H-Pyrazol-3-yl)-pyridin-2-yloxy]-isoquinolin-3-ylmethyl}-piperazin-1-yl)-ethanone], the values for the 50% inhibitory concentration (IC50) (against human LTA4 hydrolase; in experiment [1]) were 0.94 nM and 230 nM, respectively.

For the molecule `NC(=O)C1CCN(Cc2ccc3cc(Oc4ccc(-c5ccn[nH]5)cn4)ccc3c2)CC1` [Example 5, 1-{6-[5-(2H-Pyrazol-3-yl)-pyridin-2-yloxy]-naphthalen-2-ylmethyl}-piperidine-4-carboxylic acid amide], the results for the half-inhibitory concentration (IC50) (at human LTA4 hydrolase; in experiment [1]) were 0.46 nM and 220 nM, respectively.

As for `c1cc(-c2ccc(Oc3ccc4nc(OCCN5CCOCC5)sc4c3)cc2)n[nH]1` [Example 232, 2-(2-Morpholin-4-yl-ethoxy)-6-[4-(1H-pyrazol-3-yl)-phenoxy]-benzothiazole], the results for the half-inhibitory concentration (IC50) (against human LTA4 hydrolase; in experiment [1]) were 1.4 nM and 160 nM, respectively.

As to `O=S1(=O)CCN(CCn2cc3cc(Oc4ccc(-c5ccn[nH]5)cc4)ccc3n2)CC1` [Example 176, 2-[2-(1,1-Dioxo-1-λ-6-thiomorpholin-4-yl)-ethyl]-5-[4-(2H-pyrazol-3-yl)-phenoxy]-2H-indazole], the 50% inhibitory concentration (IC50) on human LTA4 hydrolase worked out at 0.32 nM; in experiment [1], 140 nM.

With `O=C(CO)N1CC2CCC(C1)N2Cc1ccc2cc(Oc3ccc(-c4ccn[nH]4)cn3)ccc2n1` [Example 132, 2-Hydroxy-1-(8-{6-[5-(2H-pyrazol-3-yl)-pyridin-2-yloxy]-quinolin-2-ylmethyl}-3,8-diaza-bicyclo[3.2.1]oct-3-yl)-ethanone], the IC50 on human LTA4 hydrolase worked out at 0.28 nM; in experiment [1], 140 nM.

Regarding `CN(C)CCn1cc2cc(Oc3ccc(-c4ccn[nH]4)cc3)ccc2n1` [Example 158, Dimethyl-(2-{5-[4-(2H-pyrazol-3-yl)-phenoxy]-indazol-2-yl}-ethyl)-amine], the IC50 is 0.28 nM at human LTA4 hydrolase and 110 nM in experiment [1].

Regarding `c1cc(-c2ccc(Oc3ccc4nn(CCNCC5CCOCC5)cc4c3)cc2)[nH]n1` [Example 206, (2-{5-[4-(2H-Pyrazol-3-yl)-phenoxy]-indazol-2-yl}-ethyl)-(tetrahydro-pyran-4-ylmethyl)-amine], the figures for the IC50 (against human LTA4 hydrolase; in experiment [1]) were 0.42 nM and 210 nM, respectively.

For `CC(=O)NC1CCN(CCCn2ncc3cc(Oc4ccc(-c5ccn[nH]5)cc4)ccc32)CC1` [Example 109, N-[1-(3-{5-[4-(2H-Pyrazol-3-yl)-phenoxy]-indazol-1-yl}-propyl)-piperidin-4-yl]-acetamide], the 50% inhibitory concentration (IC50) was 0.47 nM at human LTA4 hydrolase and 230 nM in experiment [1].

For `O=C1CC[C@@H](Cn2ncc3cc(Oc4ccc(-c5ccn[nH]5)cc4)ccc32)N1` [Example 253, (S)-5-{5-[4-(2H-Pyrazol-3-yl)-phenoxy]-indazol-1-ylmethyl}-pyrrolidin-2-one], the IC50 against human LTA4 hydrolase worked out at 1.4 nM; in experiment [1], 300 nM.

In the case of `O=C(CO)N1C[C@@H]2C[C@H]1CN2Cc1ccc2cc(Oc3ccc(-c4ccn[nH]4)cn3)ccc2n1` [Example 139, 2-Hydroxy-1-((1S,4S)-5-{6-[5-(2H-pyrazol-3-yl)-pyridin-2-yloxy]-quinolin-2-ylmethyl}-2,5-diaza-bicyclo[2.2.1]hept-2-yl)-ethanone], the 50% inhibitory concentration (IC50) is 0.39 nM at human LTA4 hydrolase and 200 nM in experiment [1].
